Two compounds from PMC11973282, “RAS70 peptide targets multiforme glioblastoma by binding to the plasma membrane heat shock protein HSP70” (Frontiers in Oncology, 2025) can be followed below.

Where a SMILES comes first, the peptide text is derived from it. [ ]: non-standard residue; d: D form. βAla = NCCC(=O)O

Series [1] has as its system human U87 glioblastoma cells. Briefly: Flow cytometry of FITC-labeled peptide internalization, 24 h (also with antibody pre-treatment). The format is cell-based. As for the experimental part:
(§1) The binding of the TKD-sCy5, RAS70-sCy5, and NGL-RGD-sCy5 peptides were analyzed using a CytoFLEX flow cytometer (Beckman Coulter, USA). A single cell suspension of C6, GL261, T98G, U87, U251, ANI, IBD, TMS (0.15×10^6 cells in mL^-1) were incubated for 30 minutes on ice in the dark with peptides in concentration of 75 μg/mL, and then washed with cold PBS solution. Cells without peptides were used as controls. To evaluate incorporation of the fluorescently-labeled peptides for longer period of co-incubation of 24 h cells (C6, GL261, U87, U251) were treated with FITC-labeled peptides, then washed with PBS and assessed on a CytoFLEX flow cytometer (Beckman Coulter, USA). Following FACS analysis cell pellet was further evaluated employing confocal microscopy Leica TCS SP8 (Leica Microsystems, Germany).
(§2) The incorporation of peptides over longer periods of co-incubation with brain tumor cells was additionally analyzed using a Cytomics FC500 flow cytometer (BeckmanCoulter, USA). Tumor cells (C6, GL261, U87, U251) were incubated with peptides (concentration 50 μg/mL) for 24 hours, washed with PBS. Internalization of FITC-labeled peptides was assessed by determining the mean fluorescence intensity (MFI). According to the study data ( Figure 6A ), it was shown that TKD peptide accumulated in all cell lines – 2120 ± 152 (C6), 2099 ± 107 (GL261), 2145 ± 189 (U87), 2373 ± 201 (U251) compared to the control scramble peptide (NGL) – 378 ± 48 (C6), 344 ± 57 (GL261), 301 ± 66 (U87), 313 ± 56 (U251) (P<0.001). […] Following FACS analysis the cell pellet was collected and evaluated for peptides cell uptake employing confocal microscopy ( Figure 6B ). The obtained microscopy data confirmed higher accumulation of RAS70 peptide in studied cell lines as compared to TKD or scramble peptides.
(§3) Figure 6 Evaluation of the mHsp70-targeting peptides internalization by glioma cells. (A) Flow cytometric evaluation of FITC-labeled peptide accumulation in tumor cell lines (rat glioma C6, mouse glioma GL261, human glioblastoma U87 and U251) after co-incubation for 24 hours. […] (B) Confocal microscopy assessment of FITC-labeled peptide accumulation in tumor cell lines (rat glioma C6, mouse glioma GL261, human glioblastoma U87 and U251) after co-incubation for 24 hours. […] (C) Analysis of the peptides uptake by human U87 glioblastoma cells following co-incubation for 24 hours.
To evaluate the mHsp70-mediated uptake of the peptides prior to co-incubation with either TKD or RAS70 peptides cells were pre-treated with anti-Hsp70 antibodies (SPA-810, SPA-815) that are known to target the membrane-bound chaperone on cancer cells ([37]). […] The tripeptide RGD (Arg-Gly-Asp) motif is known to bind to integrins, including αvβ3 and αvβ5 expressed on brain tumor cells and tumor endothelial cells ([38], [39]). […] As expected, we observed the decrease of NGL-RGD and RAS70 internalization by tumor cells but not of TKD or NGL peptides ( Figure 6C ).

Series [2] concerns C6 cells (lower chamber; HUVEC and astrocytes barrier).
Experimental: (§4) Then, a peptide labeled with a fluorescent label was introduced into the upper chamber and co-incubation was carried out for 12, 24 and 36 hours. At the end of the incubation, the tumor cells were washed with cold phosphate-buffered saline (PBS) and fixed with a 4% solution of paraformaldehyde in PBS. Nuclei were stained with 4’,6-diamidino-2-phenylindole (DAPI). Fluorescent images were obtained using a Leica TCS SP8 confocal microscope (Leica, Germany). To avoid possible cross-interference of different fluorochromes, images for DAPI and FITC were obtained using a sequential sample scanning method. Fluorescently labeled cells were counted in the lower chamber. To estimate the mHsp70-mediated uptake of chaperone-targeted peptides tumor cells prior to incubation were pre-treated with anti-Hsp70 monoclonal antibodies SPA-810 (1:250, Stressgen) and SPA-815 (1:250 Stressgen). To exclude integrin (αvβ3, αvβ5)-mediated penetration of RAS70 tumor cells prior to incubation with peptides were pre-treated with anti- αvβ3 (1:200 clone LM609, ZMS1030, Sigma-Aldrich, USA), -αvβ5 (1:200 clone P1F6, MAB1961Z, Sigma-Aldrich, USA) monoclonal antibodies.
(§5) Then, a peptide labeled with a fluorescent dye (FITC) was introduced into the upper chamber and co-incubation was carried out for 12, 24 and 36 hours. At the end of the incubation, the tumor cells were washed with cold phosphate-buffered saline (PBS) and fixed with a 4% solution of paraformaldehyde in PBS. Nuclei were stained with 4’,6-diamidino-2-phenylindole (DAPI).
(§6) Data from 3 independent experiments are presented as M ± SE. […] Data from 3 independent experiments are presented as M ± SE. ** p < 0.01 for testing mean expression levels.
The subject of series [3] is GL261 (mouse glioma) cells. The experiment in a line: Flow cytometry of FITC-labeled peptide internalization, 24 h. It counts as cell-based. Conditions: 50 μg/mL, M ± SE, 3 independent experiments. The protocol: as §1, §2, §3
Another series concerns C6 (rat glioma) cells. The series is described as above. It counts as cell-based. The following applies: 50 μg/mL, M ± SE, 3 independent experiments. The protocol: as §1, §2, §3
For series [4], the system named is human glioblastoma U251 cells. The description is as above. The following applies: 50 μg/mL, M ± SE, 3 independent experiments. It counts as cell-based. The protocol:
as §1, §2, §3

Series [5] deals with GL261 cells (lower chamber; HUVEC and astrocytes barrier).
Experimental: as §4, §5, §6
The test system of series [6] is U251 cells (lower chamber; HUVEC and astrocytes barrier).
Experimental: as §4, §5, §6
For series [7], the system named is U87 cells (lower chamber; HUVEC and astrocytes barrier). The experiment in a line: Transwell BBB model, peptide passage and accumulation in tumor cells (also with antibody pre-treatment). It counts as in vitro ADME, human. The text has this:
Fluorescently labeled cells were counted in the lower chamber.
Next, we assessed the mHsp70- and integrin (αvβ3, αvβ5)-mediated penetration of the TKD and RAS70 via the BBB ( Figure 9B ). […] When anti-αvβ3 and anti-αvβ5 mAbs were employed, we detected the decrease of NGL-RGD and RAS70 penetration via the BBB but not the NGL and TKD peptides.

Series [8] relates to C6, GL261, and T98G cells. Briefly: MTT test, overall statement for all cell lines studied. The following applies: fluorescently labeled peptides, 7.5, 75, 750 µg/mL, 24, 48 and 72 hours.
Experimental: 3-(4,5-dimethylthiazol-2-yl)-2,5-diphenyltetrazolium bromide (MTT) assay was performed to evaluate the cytotoxic effect of TKD-sCy5, RAS70-sCy5, and NGL-RGD-sCy5 peptides. The C6, GL261, and T98G cells were seeded in 96-well plates (Thermo Fisher Scientific, Waltham, USA) at concentration of 5*10^3 cells in 100 µL per well, plates were incubated at 37°C in 5% CO2. After 24 hours, peptides were added to the culture medium for final concentration of 7.5, 75, and 750 μg/mL; plates were incubated for 24, 48 and 72 hours. […] At the end of the incubation period, 1 mg/mL MTT solution was added for 4 hours and dissolved with DMSO. The absorbance was measured at 570 nm using Varioskan LUX Multimode Microplate Reader (Thermo Fisher Scientific, Waltham, USA).
Subsequently, we analyzed the cytotoxic effect of the peptides (RAS70, TKD, NGL, NGL-RGD) using the MTT test at various peptides concentrations (7.5, 75, 750 µg/mL) and co-incubation times of 24, 48 and 72 hours.

As to “NGLTLKNDFSRLEG [control scramble peptide]”, the “mean fluorescence intensity (MFI), internalization of FITC-labeled peptide” value in series [1] (U87, 50 μg/mL, 24 hours, flow cytometry, M ± SE, 3 independent experiments) was 301 ± 66; in [3], 344 ± 57; in the series with C6 (rat glioma) cells, 378 ± 48; in series [4], 313 ± 56. The “fluorescently labeled tumor cells in the lower chamber” value in series [2] was 211 ± 29 cells; in series [5] it was 188 ± 47 cells; in series [6] it was 221 ± 38 cells; in series [7] (transwell BBB model: HUVEC (5×10^5) and astrocytes (5×10^5) in upper chamber, U87 (1×10^4) in lower chamber, FITC-labeled peptide, 36 hours, confocal microscopy count, M ± SE, 3 independent experiments) it was 211 ± 41 cells. For the same compound, in series [7] (transwell, U87 cells, combined antibody treatment), the “penetration via the BBB after combined anti-αvβ3, anti-αvβ5 and anti-Hsp70 mAbs” value was “excluding”.

Regarding `CC(C)C[C@H](NC(=O)CNC(=O)[C@@H](N)CC(N)=O)C(=O)N[C@H](C(=O)N[C@@H](CC(C)C)C(=O)N[C@@H](CCCCN)C(=O)N[C@@H](CC(N)=O)C(=O)N[C@@H](CC(=O)O)C(=O)N[C@@H](Cc1ccccc1)C(=O)N[C@@H](CO)C(=O)N[C@@H](CCCNC(=N)N)C(=O)N[C@@H](CC(C)C)C(=O)N[C@@H](CCC(=O)O)C(=O)NCC(=O)NCCC(=O)N[C@@H](CCCNC(=N)N)C(=O)NCC(=O)N[C@@H](CC(=O)O)C(=O)O)[C@@H](C)O` [NGL-RGD] (H-NGLTLKNDFSRLEG[βAla]RGD-OH), the “peptide internalization after pre-treatment with anti-αvβ3 and -αvβ5 antibodies” value in series [1] (U87, 24 hours, cells pre-treated with anti-αvβ3 (LM609) and anti-αvβ5 (P1F6) mAbs (1:200)) is recorded as “decrease”. Further, in series [1] (U87, 24 hours, combination of antibodies), the “peptide uptake after pre-treatment with both anti-Hsp70 and anti-αvβ3/-αvβ5 mAbs” value is recorded as “significant abrogation”. For the same compound, the “cytotoxic effect (MTT test)” value in [8] is “did not reveal the toxic effect”.
